# Results reported in ChEMBL document CHEMBL5728514, “[1,2,4]Triazolo[4,3-a]quinoxaline derivative, method for preparing same, and pharmaceutical composition for preventing or treating BET protein-related diseases, containing same as active ingredient” (2021).
# pIC50: −log10 of the molar value.
# Target: Bromodomain-containing protein 4 (Homo sapiens, UniProt O60885)
# Assay: A mixture comprising 100 nM GST-BRD4 (BD1+BD2) and 100 nM biotinylated acetyl-histone H4 (Lys5,8,12,16) peptide was prepared in assay buffer (50 mM HEPES pH 7.4; 25 mM NaCl; 0.05% Tween 20; 0.1% bovine serum albumin (BSA); 10 mM dithiothreitol (DTT)). After adding 6 μl of the mixture to the diluent, 6 μl of the pre-mixed AlphaLISA Glutathione Acceptor Beads and AlphaScreen Streptavidin Donor Beads (PerkinElmer, 10 μg/ml in assay buffer, respectively) was added thereto. The samples were incubated in the dark at room temperature for 30 minutes (shaking at 300 rpm). Then, the signals were measured with PerkinElmer Envision HTS Multilabel Reader using an alpha screen protocol of PerkinElmer. Each plate contained the negative control in which biotinylated acetyl-histone H4 peptide and GST-BRD4 (BD1+BD2) were replaced by assay buffer. In the case of using the software GraphPad Prism for calculation, the negative control point was input as a low standard value. The positive control (probe molecule l-BET762 containing protein/peptide mixture) proceeded to pipetting.
row,Compound,pIC50
1,Cc1nnc2c(NCCCCNC(=O)C(C)C)nc3ccc(F)cc3n12,7.11
2,Cc1nnc2c(NCCCCNC(=O)c3ccccc3)nc3ccc(NC(=O)C(C)C)cc3n12,7.25
3,Cc1ccc2nc(NCCCCNC(=O)C(C)(C)C)c3nnc(C)n3c2c1,7.25

# More lines, in order of rising pIC50, values ahead:
row,pIC50,Compound
1,7.04,COCCOc1ccc2c(c1)nc(NCCCCNC(C)=O)c1nnc(C)n12
2,7.04,Cc1nnc2c(NCCCCNC(=O)OC(C)C)nc3c(C(F)(F)F)cc(F)cc3n12
3,7.21,Cc1nnc2c(NCCCCNC(=O)C(C)(C)C)nc3ccc(F)cc3n12
4,7.24,Cc1nnc2c(NCCCCNC(=O)c3ccccc3)nc3ccccc3n12
